This note sets out measurements from patent US11370794B2, “Toll-like receptor antagonist compounds and methods of use” (Dynavax Technologies Corporation, priority 2016, dated 2022).

Read-outs that look alike come from different tables or passages of the source. Where only a bound is given, the exact number is not on record here.

The target in one assay is T1, human TLR8 (Homo sapiens, UniProt Q9NR97).
T1 construct: endogenous in cells; host or cells: primary human monocytes (CD14 microbeads) from buffy coats of healthy donors
T1 sequence (Q9NR97 27-1041): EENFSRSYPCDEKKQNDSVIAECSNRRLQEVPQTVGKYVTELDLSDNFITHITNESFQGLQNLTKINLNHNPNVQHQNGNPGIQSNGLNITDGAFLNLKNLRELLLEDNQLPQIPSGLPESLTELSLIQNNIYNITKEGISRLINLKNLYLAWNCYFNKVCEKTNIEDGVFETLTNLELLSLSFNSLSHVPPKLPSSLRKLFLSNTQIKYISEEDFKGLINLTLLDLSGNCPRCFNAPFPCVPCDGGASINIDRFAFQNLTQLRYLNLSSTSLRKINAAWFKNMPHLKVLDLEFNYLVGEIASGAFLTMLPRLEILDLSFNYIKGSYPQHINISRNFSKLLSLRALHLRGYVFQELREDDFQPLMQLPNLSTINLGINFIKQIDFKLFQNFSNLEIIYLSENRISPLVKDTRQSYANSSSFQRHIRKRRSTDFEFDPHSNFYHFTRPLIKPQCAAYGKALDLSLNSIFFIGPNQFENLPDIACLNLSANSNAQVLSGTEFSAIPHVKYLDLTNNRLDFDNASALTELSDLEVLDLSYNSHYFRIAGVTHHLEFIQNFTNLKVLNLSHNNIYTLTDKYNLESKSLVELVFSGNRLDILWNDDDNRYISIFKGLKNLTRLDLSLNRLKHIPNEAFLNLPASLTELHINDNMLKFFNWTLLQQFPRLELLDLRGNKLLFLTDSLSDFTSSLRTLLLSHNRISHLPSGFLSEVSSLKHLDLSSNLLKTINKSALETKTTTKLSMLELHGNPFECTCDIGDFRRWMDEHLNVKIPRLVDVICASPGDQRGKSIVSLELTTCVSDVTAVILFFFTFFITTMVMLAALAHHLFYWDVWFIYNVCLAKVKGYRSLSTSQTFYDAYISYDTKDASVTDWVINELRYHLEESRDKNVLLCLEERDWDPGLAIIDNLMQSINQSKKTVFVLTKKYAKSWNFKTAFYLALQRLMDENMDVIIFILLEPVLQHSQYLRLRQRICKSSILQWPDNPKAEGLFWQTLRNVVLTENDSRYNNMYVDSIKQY
Briefly: Inhibition of human TLR8 in human monocytes (TNF-alpha / IL-1 beta ELISA). It counts as cell-based. As to conditions: for IC50: human monocytes, agonist ORN8L 100 μg/mL, 24 hours; for inhibits TLR8-dependent responses (in words): summary statement of the description. From the text: Example B2—Inhibition of Human TLR8 in Human Monocytes
When placed in cell culture, engagement of TLR8 with an agonist leads to expression and release of cytokines into the media.
Buffy coats from anonymized, healthy human donors. CD14 microbeads (Milteny Cat. No. 130-050-201). TLR8 agonist, (5′-M2UGCUGCUUGUG-/glycerol/-GUGUUCGUCGUM2-5′ with M2=C6-linker, ORN8L, RNA oligonucleotide (Chem Genes Corp.). Human TNF-alpha ELISA kit (Mabtech Cat. No. 3510-1H-20). Human interleukin (IL)-1 beta ELISA kit (Mabtech Cat. No. 3415-1H-20).
Following isolation of monocytes from buffy coats, human monocytes were plated into 96 well plates at approximately 200,000 cells per well. Test compounds were serially diluted and added to the plates. Immediately after adding test compounds, the TLR8 agonist (ORN8L, RNA oligonucleotide) was added to a final concentration of 100 μg/mL. Cells were incubated for 24 hours at 37° C. A portion of the media supernatant was analyzed for the presence of TNF-alpha and/or IL-1 beta using ELISA kits. The amount of TNF-alpha or IL-1 beta produced is a reflection of the amount of TLR8-dependent receptor activity. The IC50 values (the concentration at which 50% of the TLR8-dependent receptor activity is reduced) were calculated based upon the TLR8-dependent receptor activity over a range of different test compound concentrations.

A further assay deals with T2, human TLR9 (Homo sapiens, UniProt Q9NR96).
T2 construct: endogenous in cells; host or cells: primary human B cells (CD19 microbeads) from buffy coats of healthy donors
T2 sequence (Q9NR96 26-1032): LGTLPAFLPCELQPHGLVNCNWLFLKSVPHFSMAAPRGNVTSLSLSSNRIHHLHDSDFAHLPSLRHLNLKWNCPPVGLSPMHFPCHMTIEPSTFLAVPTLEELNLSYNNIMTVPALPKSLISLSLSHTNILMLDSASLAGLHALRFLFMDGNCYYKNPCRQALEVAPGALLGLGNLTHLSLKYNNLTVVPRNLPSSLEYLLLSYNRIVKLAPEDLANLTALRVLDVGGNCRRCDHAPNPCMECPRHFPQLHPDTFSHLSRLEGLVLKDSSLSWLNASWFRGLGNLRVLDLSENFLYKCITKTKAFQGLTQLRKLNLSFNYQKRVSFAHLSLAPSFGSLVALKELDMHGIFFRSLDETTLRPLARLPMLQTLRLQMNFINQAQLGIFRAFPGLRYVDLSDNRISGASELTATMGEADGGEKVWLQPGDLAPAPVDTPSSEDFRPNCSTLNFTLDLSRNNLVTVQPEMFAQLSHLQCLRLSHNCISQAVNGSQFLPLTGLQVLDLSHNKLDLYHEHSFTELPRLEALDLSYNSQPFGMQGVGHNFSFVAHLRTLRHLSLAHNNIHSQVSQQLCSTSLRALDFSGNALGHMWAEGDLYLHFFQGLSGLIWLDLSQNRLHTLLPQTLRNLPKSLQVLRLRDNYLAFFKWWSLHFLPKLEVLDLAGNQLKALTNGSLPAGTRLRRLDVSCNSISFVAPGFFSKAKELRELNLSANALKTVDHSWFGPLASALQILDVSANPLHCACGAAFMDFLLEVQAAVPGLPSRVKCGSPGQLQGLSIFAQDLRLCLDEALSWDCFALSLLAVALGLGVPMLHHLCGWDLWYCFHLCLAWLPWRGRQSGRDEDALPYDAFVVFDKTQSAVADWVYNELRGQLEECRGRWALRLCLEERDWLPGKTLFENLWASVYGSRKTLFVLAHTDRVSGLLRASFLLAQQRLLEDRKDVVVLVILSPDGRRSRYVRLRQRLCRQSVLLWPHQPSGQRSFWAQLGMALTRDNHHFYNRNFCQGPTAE
The experiment in a line: Inhibition of human TLR9 in human B cells (IL-6 ELISA). In kind it is cell-based. Conditions: for IC50: human B cells, agonist 1018 ISS 1 μM, IL-6 readout, 48 hours, range about 0.01 to 10 μM, read-out: Human TLR9 IC50; for inhibits TLR9-dependent responses (in words): summary statement of the description. The procedure:
Example B3—Inhibition of Human TLR9 in Human B Cells
When placed in cell culture, engagement of TLR9 with an agonist leads to expression and release of cytokines into the media.
Buffy coats from anonymized, healthy human donors. CD19 microbeads (Miltenyi Cat. No. 130-050-301). TLR9 agonist, 1018 ISS, CpG-containing DNA oligonucleotide. Human interleukin (IL)-6 ELISA kit (Mabtech Cat. No. 3460-1H-20).
Following isolation of […] from buffy coats, human B cells were plated into 96 well plates at approximately 300,000 cells per well. Test compounds were serially diluted and added to the plates. Test compounds were typically assayed using a concentration range from about 0.01 μM to about 10 μM. Certain test compounds were further assayed in an expanded dilution series using a compound concentration range from about 0.001 μM to about 30 μM. Immediately after adding test compounds, the TLR9 agonist (1018 ISS, CpG-containing DNA oligonucleotide) was added to a final concentration of 1 μM. Cells were incubated for 48 hours at 37° C. A portion of the media supernatant was analyzed for the presence of IL-6 using ELISA kits. The amount of IL-6 produced is a reflection of the amount of TLR9-dependent receptor activity. The IC50 values (the concentration at which 50% of the TLR9-dependent receptor activity is reduced) were calculated based upon the TLR9-dependent receptor activity over a range of different test compound concentrations.

Where [1] appears, read: TNF-alpha readout, read-out: Human TLR8 IC50 TNF-a.
The mark [2] stands for this setting: IL-1 beta readout, read-out: Human TLR8 IC50 IL-1b.

As for `Cc1ccc(-n2nc3c(N4CCC(C(=O)N5CCC(N(C)Cc6ccccc6)CC5)CC4)nnc(C)c3c2C)cc1` [compound 67, (4-(benzyl(methyl)amino)piperidin-1-yl)(1-(3,4-dimethyl-2-(p-tolyl)-2H-pyrazolo[3,4-d]pyridazin-7-yl)piperidin-4-yl)methanone], the IC50 at human TLR8 (setting [1]) was determined as 480 nM. Besides, the “inhibits TLR8-dependent responses (in words)” value against human TLR8 is “inhibit”. Besides, on human TLR9, the IC50 was found to be 49 nM and the “inhibits TLR9-dependent responses (in words)” value is recorded as “inhibit”.

Turning to `Cc1ccc(-n2nc3c(N4CCC(C(=O)N5CCC(CN6CCOCC6)C5)CC4)nnc(C)c3c2C)cc1` (centres unmarked) [compound 70, (1-(3,4-dimethyl-2-(p-tolyl)-2H-pyrazolo[3,4-d]pyridazin-7-yl)piperidin-4-yl)(3-(morpholinomethyl)pyrrolidin-1 yl)methanone], the IC50 at human TLR8 (setting [1]) is 5120 nM; at human TLR9, 150 nM.

Regarding `Cc1ccc(-n2nc3c(Cl)nnc(N4CCC(C(=O)NCCCN(C)C)CC4)c3c2C)cc1` [compound 48, 1-(7-chloro-3-methyl-2-(p-tolyl)-2H-pyrazolo[3,4-d]pyridazin-4-yl)-N-(3-(dimethylamino)propyl)piperidine-4-carboxamide], the IC50 on human TLR8 (setting [1]) was at least 20000 nM; on human TLR9, 10800 nM.

As for `Cc1ccc(-n2nc3c(N4CCC(C(=O)NCCCN(C)C)CC4)nnc(-c4ccccc4)c3c2C)cc1` [compound 35, N-(3-(dimethylamino)propyl)-1-(3-methyl-4-phenyl-2-(p-tolyl)-2H-pyrazolo[3,4-d]pyridazin-7-yl)piperidine-4-carboxamide], the IC50 was at least 20000 nM at human TLR8 (setting [1]) and 3710 nM at human TLR9.

With `CNC(=O)C1CCN(c2nnc(C)c3c(C)n(-c4ccc(C)cc4)nc23)CC1` [2-2], the IC50 was at least 20000 nM on human TLR8 (setting [1]) and 3770 nM on human TLR9.

Take `Cc1ccc(-n2nc3c(N4CCC(C(=O)NCCCN5CCc6ccccc65)CC4)nnc(C)c3c2C)cc1` [2-4]: the IC50 at human TLR8 (setting [2]), on human TLR8 (setting [1]) and on human TLR9 was above 10000 nM in each case.

On to `Cc1ccc(-n2nc3c(N4CCCC(C(=O)NCCN(C)C)C4)nnc(C)c3c2C)cc1` (centres unmarked) [45x, 1-(3,4-dimethyl-2-(p-tolyl)-2H-pyrazolo[3,4-d]pyridazin-7-yl)-N-(2-(dimethylamino)ethyl)piperidine-3-carboxamide], for which the IC50 is at least 20000 nM at human TLR8 (setting [1]) and 9 nM on human TLR9.

Consider `CCCN1CCN(C(=O)C2CCCN(c3nnc(C)c4c(C)n(-c5ccccc5)nc34)C2)CC1` (centres unmarked) [63x, (1-(3,4-dimethyl-2-phenyl-2H-pyrazolo[3,4-d]pyridazin-7-yl)piperidin-3-yl)(4-propylpiperazin-1-yl)methanone], for which the IC50 is 1010 nM at human TLR8 (setting [2]), 1120 nM at human TLR8 (setting [1]) and 18 nM on human TLR9.

For `COc1ccc(-n2nc3c(N4CCCC(C(=O)NCCN(C)C)C4)nnc(C)c3c2C)cc1` (centres unmarked) [54x, N-(2-(dimethylamino)ethyl)-1-(2-(4-methoxyphenyl)-3,4-dimethyl-2H-pyrazolo[3,4-d]pyridazin-7-yl)piperidine-3-carboxamide], the IC50 on human TLR8 (setting [2]) came to 740 nM; at human TLR8 (setting [1]), 290 nM; at human TLR9, 4 nM. In addition, the “inhibits TLR8-dependent responses (in words)” value against human TLR8 is recorded as “inhibit”. Further, the “inhibits TLR9-dependent responses (in words)” value against human TLR9 is on record as “inhibit”.

Turning to `Cc1nnc(N2CCC(C(=O)NCCCN3CCN(C)CC3)CC2)c2nn(-c3ccccc3)c(C)c12` [31x, 1-(3,4-dimethyl-2-phenyl-2H-pyrazolo[3,4-d]pyridazin-7-yl)-N-(3-(4-methylpiperazin-1-yl)propyl)piperidine-4-carboxamide], the IC50 on human TLR8 (setting [2]) is above 10000 nM; on human TLR8 (setting [1]), above 10000 nM; at human TLR9, 211 nM.

On to `Cc1ccc(-n2nc3c(N4CCC(C(=O)N5CCC6(CN(C)C6)C5)CC4)nnc(C)c3c2C)cc1` [compound 75, (1-(3,4-dimethyl-2-(p-tolyl)-2H-pyrazolo[3,4-d]pyridazin-7-yl)piperidin-4-yl)(2-methyl-2,6-diazaspiro[3.4]octan-6-yl)methanone], for which the IC50 is at least 20000 nM on human TLR8 (setting [1]) and 25 nM at human TLR9.

Turning to `Cc1ccc(-n2nc3c(N4CCC(C(=O)N5CC6CNCC6C5)CC4)nnc(C)c3c2C)cc1` (centres unmarked) [compound 71, (1-(3,4-dimethyl-2-(p-tolyl)-2H-pyrazolo[3,4-d]pyridazin-7-yl)piperidin-4-yl) (hexahydropyrrolo[3,4-c]pyrrol-2(1H)-yl)methanone], the IC50 on human TLR8 (setting [1]) is at least 20000 nM; on human TLR9, 588 nM.

On to `Cc1ccc(-n2nc3c(N4CCC(C(=O)NC5CCN(C)C5)CC4)nnc(C)c3c2C)cc1` (centres unmarked) [compound 17, 1-(3,4-dimethyl-2-(p-tolyl)-2H-pyrazolo[3,4-d]pyridazin-7-yl)-N-(1-methylpyrrolidin-3-yl)piperidine-4-carboxamide], for which the IC50 on human TLR8 (setting [2]) was above 10000 nM; on human TLR8 (setting [1]), above 10000 nM; at human TLR9, 83 nM.
